Test results reported in patent US5648360A, “Pentacyclic antihistamines” (Schering Corporation, priority 1994, dated 1997).

What was measured:
[1] = test system: PAF-induced platelet aggregation; assay: In vitro PAF antagonism assay (inhibition of PAF-induced platelet aggregation in platelet-rich plasma); format: cell-based; conditions: human PRP, PAF 1-5×10^-8 M
Experimental: In vitro Assay: Preparation of platelet-rich plasma (PRP): Human blood (50 ml) is collected from healthy male donors in an anticoagulant solution (5 ml) containing sodium citrate (3.8%) and dextrose (2%). Blood is centrifuged at 110 x g for 15 min. and the supematant (PRP) carefully transferred into a polypropylene tube. Platelet-poor-plasma (PPP) is prepared by centrifuging PRP at 12,000 x g for 2 min. (Beckman Microfuge B). PRP is used within 3 hours of drawing the blood.
Platelet Aggregation Assay: When an aggregating agent such as PAF is added to PRP, platelets aggregate. The aggregation assays are performed using a dual-channel aggregometer (Model 440, Chrono-Log Corp., Havertown, Pa.). PRP (0.45 ml) in aggregometer cuvettes is continually stirred (37° C.). Solutions of test compounds or vehicle are added to the PRP, and after incubation for 2 min., 10-15 μl aliquots of PAF solution are added so as to achieve a final concentration of 1-5×10^-8 M. Incubations are continued until the increase in light transmission reaches a maximum (usually 2 min). Values for inhibition are calculated by comparing maximal aggregation obtained in the absence and the presence of the compound. For each experiment, a standard PAF antagonist such as alprazolam is used as a positive internal control. The inhibitory concentration (IC50) is the concentration of compound in micromoles at which 50% of the aggregation is inhibited, as measured by the light transmission through each sample of PRP as compared to PPP.

H1 = molecular target: T1, H1 (Cavia porcellus, UniProt P31389); assay: In vitro H1 antihistamine activity assay (inhibition of histamine spasmogenic activity in isolated ileal segments); parameters: species or system male Hartley guinea pigs; conditions: guinea pig ileum, antagonist 5 min before histamine curve
T1 construct: Ileal segments were removed from male Hartley guinea pigs; from tissue; host or cells: isolated ileal segments of male Hartley guinea pigs
Experimental: In vitro assay: Ileal segments were removed from male Hartley guinea pigs (250-350 g) and suspended in 10 ml perfusion baths containing Tyrode's solution. The buffer was equilibrated with 95% O2 and 5% CO2 and maintained at a temperature of 37° C. The tissues were adjusted to 0.5-1 g tension and allowed to equilibrate for 30 min. All responses were recorded isometrically by means of a Grasse smooth muscle transducer and electronic recorder. Drugs were tested for their ability to inhibit the spasmogenic activity of histamine dihydrochloride. Two cumulative control log concentration-response curves for histamine (10^-7 -10^-5 M) were generated for each tissue. Antagonists were added to the bath and allowed to act for 5 min. before another histamine curve was generated.
Drugs were evaluated for their ability to inhibit histamine and thereby shift the response curve to the right. […] These values were used to determine relative potency.

T1 sequence (P31389 whole entry): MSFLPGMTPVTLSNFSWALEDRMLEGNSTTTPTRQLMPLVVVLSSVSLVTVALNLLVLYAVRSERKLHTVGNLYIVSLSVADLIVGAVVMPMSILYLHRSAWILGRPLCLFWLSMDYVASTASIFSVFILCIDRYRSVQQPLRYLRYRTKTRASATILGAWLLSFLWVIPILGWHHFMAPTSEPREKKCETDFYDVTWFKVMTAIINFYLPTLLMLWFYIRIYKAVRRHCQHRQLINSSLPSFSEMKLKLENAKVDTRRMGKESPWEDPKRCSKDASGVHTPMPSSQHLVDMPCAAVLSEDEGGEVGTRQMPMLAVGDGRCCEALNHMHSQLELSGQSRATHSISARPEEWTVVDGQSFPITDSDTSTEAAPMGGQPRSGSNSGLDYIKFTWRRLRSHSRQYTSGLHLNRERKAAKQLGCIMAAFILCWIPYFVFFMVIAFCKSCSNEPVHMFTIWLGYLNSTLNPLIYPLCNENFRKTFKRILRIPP

IC50 [1]	Structure (SMILES)	inhibition at 50 µM [1]	further results
	CC(=O)N1CC[C@H]2C(=O)c3cc(Cl)cc4c3[C@H](c3ncccc3CC4)[C@H]2C1 (relative stereo) [Compound 6A]	33%	
	CC(=O)N1CC[C@@H]2C(=O)c3cc(Cl)cc4c3[C@H](c3ncccc3CC4)[C@H]2C1 (relative stereo) [Compound 6B]	49%	
	CC(=O)N1CC[C@@H]2[C@H]3c4ncccc4CCc4cc(Cl)cc(c43)C(=O)[C@@H]2C1 (relative stereo) [Compound 10A]	15%	
	CN1CC[C@@H]2[C@H]3c4ncccc4CCc4cc(Cl)cc(c43)C(=O)[C@@H]2C1 (relative stereo) [Compound 11A]	47%	
	CN1CC[C@@H]2[C@H]3c4ncccc4CCc4cc(Cl)cc(c43)C(=O)[C@H]2C1 (relative stereo) [Compound 11B]	4%	
	CC(=O)N1CC[C@H]2C(=Cc3cc(Cl)cc4c3[C@@H]2c2ncccc2CC4)C1 (relative stereo) [Compound 13]	23%	
~3000 µM	CC(=O)N1CC[C@H]2[C@H](Cc3cc(Cl)cc4c3[C@@H]2c2ncccc2CC4)C1 (relative stereo) [Compound 14A]		
~300 µM	CC(=O)N1CC[C@H]2[C@@H](Cc3cc(Cl)cc4c3[C@@H]2c2ncccc2CC4)C1 (relative stereo) [Compound 14B]		
~2.8 µM	O=C(c1cc[n+]([O-])cc1)N1CC[C@H]2[C@@H](Cc3cc(Cl)cc4c3[C@@H]2c2ncccc2CC4)C1 (relative stereo) [Compound 20]		

Structure (SMILES)	IC50 [1]	inhibition at 50 µM [1]	further results
CN1CC[C@H]2C(=Cc3cc(Cl)cc4c3[C@@H]2c2ncccc2CC4)C1 (relative stereo) [Compound 16]	~5.5 µM		
CN1CC[C@H]2[C@@H](Cc3cc(Cl)cc4c3[C@@H]2c2ncccc2CC4)C1 (relative stereo) [Compound 17, 7-chloro-2,3,4,4a,5,9,10,14b,14c-decahydro-3-methylpyrido[2",3":7',6']-cyclohepta[1',2',3',:4,5]naphtho[2,3-c]pyridine]	~38 µM		Ki (H1; read-out: dissociation constant (Ki)): 0.001 µM; Kb (H1; read-out: pA2 (converted)): 0.00141 µM
